The target of assay [1] is T1, Substance-K receptor (Homo sapiens, UniProt P21452).
T1 sequence (P21452 whole entry): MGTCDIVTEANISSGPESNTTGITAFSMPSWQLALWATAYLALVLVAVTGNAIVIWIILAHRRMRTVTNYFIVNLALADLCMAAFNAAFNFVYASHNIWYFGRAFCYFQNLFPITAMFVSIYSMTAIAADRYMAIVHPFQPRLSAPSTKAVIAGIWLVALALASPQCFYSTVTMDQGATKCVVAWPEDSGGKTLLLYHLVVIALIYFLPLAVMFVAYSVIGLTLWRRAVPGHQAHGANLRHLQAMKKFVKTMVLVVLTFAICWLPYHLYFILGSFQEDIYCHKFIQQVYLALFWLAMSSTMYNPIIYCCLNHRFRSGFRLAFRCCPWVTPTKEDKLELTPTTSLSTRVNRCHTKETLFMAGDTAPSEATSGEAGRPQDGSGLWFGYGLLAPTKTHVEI
Briefly: Binding affinity in membrane preparations containing recombinant human Tachykinin receptor 2 in CHO cells by using [3H]NKA as the radioligand. In kind it is cell membranes.

The target of assay [2] is Substance-P receptor (Homo sapiens, UniProt P25103). Briefly: Binding affinity in membrane preparations containing recombinant human Tachykinin receptor 1 in CHO cells by using [3H]-Sar SP as the radioligand. In kind it is cell membranes.
Substance-P receptor (Homo sapiens, UniProt P25103), sequence (P25103 whole entry): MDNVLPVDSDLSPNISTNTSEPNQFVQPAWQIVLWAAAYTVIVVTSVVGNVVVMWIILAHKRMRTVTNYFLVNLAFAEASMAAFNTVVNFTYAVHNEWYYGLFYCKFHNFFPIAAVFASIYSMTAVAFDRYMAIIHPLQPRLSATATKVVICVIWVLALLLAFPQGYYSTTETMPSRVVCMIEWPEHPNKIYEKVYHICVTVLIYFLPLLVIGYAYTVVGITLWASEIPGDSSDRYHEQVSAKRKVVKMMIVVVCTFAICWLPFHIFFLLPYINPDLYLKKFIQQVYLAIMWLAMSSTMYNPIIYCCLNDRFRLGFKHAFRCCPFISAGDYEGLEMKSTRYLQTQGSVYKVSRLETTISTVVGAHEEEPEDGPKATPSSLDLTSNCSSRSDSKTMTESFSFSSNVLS
For assay [3], the target named is T2, Substance-K receptor (Mesocricetus auratus, UniProt P51144).
T2 sequence (P51144 whole entry): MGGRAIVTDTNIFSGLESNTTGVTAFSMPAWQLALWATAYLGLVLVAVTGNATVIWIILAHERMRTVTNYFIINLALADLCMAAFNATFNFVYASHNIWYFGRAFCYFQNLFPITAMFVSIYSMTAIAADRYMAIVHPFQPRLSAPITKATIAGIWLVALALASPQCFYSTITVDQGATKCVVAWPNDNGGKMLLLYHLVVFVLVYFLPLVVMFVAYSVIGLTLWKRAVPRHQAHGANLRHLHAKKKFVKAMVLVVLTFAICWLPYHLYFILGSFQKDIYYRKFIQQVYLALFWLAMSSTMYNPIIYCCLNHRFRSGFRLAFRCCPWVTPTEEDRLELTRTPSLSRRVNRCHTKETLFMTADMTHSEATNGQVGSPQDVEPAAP
The assay can be described thus: Inhibition of NKA-induced airway contraction of isolated hamster trachea (ht) was used as a measure of NK2-receptor antagonist activity. The format is functional, tissue-based. The note with it: read-out: pA2 (converted).

Assay [4] deals with Substance-P receptor (Cavia porcellus, UniProt P30547). The assay can be described thus: Inhibition of the SP-induced NK1-mediated enhancement of the EFS-induced sympathetic neurogenic contractions of gpvd, used as a measure of antagonist activity. In kind it is functional. The note with it: read-out: pA2 (converted).
Substance-P receptor (Cavia porcellus, UniProt P30547), sequence (P30547 whole entry): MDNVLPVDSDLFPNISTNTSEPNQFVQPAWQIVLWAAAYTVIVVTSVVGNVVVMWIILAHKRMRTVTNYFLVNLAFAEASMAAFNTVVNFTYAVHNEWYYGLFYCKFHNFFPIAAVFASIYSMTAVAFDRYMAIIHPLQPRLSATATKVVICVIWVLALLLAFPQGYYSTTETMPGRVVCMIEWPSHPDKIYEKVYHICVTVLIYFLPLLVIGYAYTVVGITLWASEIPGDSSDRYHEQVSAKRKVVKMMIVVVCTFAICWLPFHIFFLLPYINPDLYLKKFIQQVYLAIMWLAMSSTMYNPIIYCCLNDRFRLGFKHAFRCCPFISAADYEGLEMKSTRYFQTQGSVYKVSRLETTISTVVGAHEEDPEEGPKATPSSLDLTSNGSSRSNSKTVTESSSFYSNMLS

In general, Ki refers to the equilibrium dissociation constant of an inhibitor or competing ligand from its target. In the case of `COc1cc(CC(=O)N2CCN(C(=O)CNC3CCN(Cc4ccccc4)CC3)C(c3ccc(Cl)c(Cl)c3)C2)cc(OC)c1OC` (centres undefined), the Ki on Substance-K receptor [1] and at Substance-P receptor [2] was > 1000 nM throughout.

Consider `Cc1cc(C)cc(C(=O)N2CCN(C(=O)CNC3CCN(C(=O)[C@@H](N)c4ccccc4)CC3)[C@H](c3ccc(Cl)c(Cl)c3)C2)c1`, for which the Ki on Substance-K receptor [1] amounted to 1.1 nM; at Substance-P receptor [2], 42 nM.

Take `Cc1cc(C)cc(C(=O)N2CCN(C(=O)CNC3CCNCC3)[C@H](c3ccc(Cl)c(Cl)c3)C2)c1`: the Ki was 20 nM on Substance-K receptor [1] and 215 nM on Substance-P receptor [2].

For the compound `CN1CCN(C(=O)CNC2CCN(Cc3ccccc3)CC2)C(c2ccccc2)C1` (centres undefined), the values for the Ki at Substance-K receptor [1] and on Substance-P receptor [2] were > 1000 nM and 135 nM, respectively.

As for `O=C(c1cc(Br)cc(Br)c1)N1CCN(C(=O)CNC2CCN(Cc3ccccc3)CC2)C(c2ccc(Cl)c(Cl)c2)C1` (centres undefined), the Ki at Substance-K receptor [1] is 14 nM; at Substance-P receptor [2], 3.2 nM.

Consider `Cc1cc(C)cc(C(=O)N2CCN(C(=O)CNC3CCN(C(=O)[C@@H](N)Cc4ccccc4)CC3)[C@H](c3ccc(Cl)c(Cl)c3)C2)c1`, for which the inhibition constant (Ki) at Substance-K receptor [1] stood at 3.2 nM; at Substance-P receptor [2] it was 21 nM.

For `Cc1cc(C)cc(C(=O)N2CCN(C(=O)CNC3CCN(Cc4cc[nH]c4)CC3)[C@H](c3ccc(Cl)c(Cl)c3)C2)c1`, the Ki came to 1.3 nM on Substance-K receptor [1] and 35 nM on Substance-P receptor [2].

`Cc1cc(C)cc(C(=O)N2CCN(C(=O)CNC3CCN(C(=O)[C@H](N)c4ccccc4)CC3)[C@H](c3ccc(Cl)c(Cl)c3)C2)c1`: the figures for the Ki on Substance-K receptor [1] and at Substance-P receptor [2] were 16 nM and 143 nM, respectively.

`O=C(Cc1cc(C(F)(F)F)cc(C(F)(F)F)c1)N1CCN(C(=O)CNC2CCN(Cc3ccccc3)CC2)C(c2ccccc2)C1` (centres undefined): the inhibition constant (Ki) at Substance-K receptor [1] is > 1000 nM; on Substance-P receptor [2], 136 nM.

On to `O=C(c1cc(F)cc(F)c1)N1CCN(C(=O)CNC2CCN(Cc3ccccc3)CC2)C(c2ccc(Cl)c(Cl)c2)C1` (centres undefined), for which the results for the Ki on Substance-K receptor [1] and on Substance-P receptor [2] were 22 nM and 23 nM, respectively.

For `CC(=O)Nc1nc(CN2CCC(NCC(=O)N3CCN(C(=O)c4cc(C)cc(C)c4)C[C@H]3c3ccc(Cl)c(Cl)c3)CC2)cs1`, the inhibition constant Ki on Substance-K receptor [1] was found to be 0.9 nM; on Substance-P receptor [2], 52 nM.

In the case of `Cc1cc(C)cc(C(=O)N2CCN(C(=O)CNC3CCN(Cc4ncc[nH]4)CC3)[C@H](c3ccc(Cl)c(Cl)c3)C2)c1`, the inhibition constant (Ki) on Substance-K receptor [1] was determined as 3 nM; on Substance-P receptor [2], 92 nM.

Regarding `Cc1cc(C)cc(C(=O)N2CCN(C(=O)CNC3CCN(C(=O)[C@H](N)Cc4c[nH]c5ccccc45)CC3)[C@H](c3ccc(Cl)c(Cl)c3)C2)c1`, the results for the Ki at Substance-K receptor [1] and on Substance-P receptor [2] were 28 nM and 70 nM, respectively.

Turning to `Cc1cc(C)cc(C(=O)N2CCN(C(=O)CNC3CCN(C(=O)[C@H](N)Cc4ccccc4)CC3)[C@H](c3ccc(Cl)c(Cl)c3)C2)c1`, the Ki was 1.1 nM on Substance-K receptor [1] and 11 nM at Substance-P receptor [2].

Consider `CC(=O)Nc1ccc(CN2CCC(NCC(=O)N3CCN(C(=O)c4cc(C)cc(C)c4)C[C@H]3c3ccc(Cl)c(Cl)c3)CC2)cc1`, for which the Ki was determined as 1.3 nM on Substance-K receptor [1] and 15 nM on Substance-P receptor [2].

As to `O=C(c1cc(Cl)cc(Cl)c1)N1CCN(C(=O)CNC2CCN(Cc3ccccc3)CC2)C(c2ccc(Cl)c(Cl)c2)C1` (centres undefined), the Ki on Substance-K receptor [1] is 14 nM; at Substance-P receptor [2], 7.7 nM.

For `Cc1cc(C)cc(C(=O)N2CCN(C(=O)CNC3CCN(Cc4ccccc4)CC3)C(c3ccc(Cl)c(Cl)c3)C2)c1` (centres undefined), the Kb on Substance-K receptor [3] and on Substance-P receptor [4] was 316 nM each time.

Regarding `O=C(CNC1CCN(Cc2ccccc2)CC1)N1CCN(Cc2cc(C(F)(F)F)cc(C(F)(F)F)c2)CC1c1ccc(Cl)c(Cl)c1` (centres undefined), the Ki at Substance-K receptor [1] is 175 nM; at Substance-P receptor [2], 30 nM.

Consider `O=C(CN1CCC(O)(c2ccccc2)CC1)N1CCN(Cc2cc(C(F)(F)F)cc(C(F)(F)F)c2)CC1c1ccccc1` (centres undefined), for which the inhibition constant (Ki) at Substance-K receptor [1] was > 1000 nM; on Substance-P receptor [2], 13 nM.

Take `O=C(CN1CCC(Cc2ccccc2)CC1)N1CCN(Cc2cc(C(F)(F)F)cc(C(F)(F)F)c2)CC1c1ccc(Cl)c(Cl)c1` (centres undefined): the Ki is > 1000 nM at Substance-K receptor [1] and 110 nM at Substance-P receptor [2].

For `CC(=O)NC1(c2ccccc2)CCN(CC(=O)N2CCN(Cc3cc(C(F)(F)F)cc(C(F)(F)F)c3)CC2c2ccccc2)CC1` (centres undefined), the inhibition constant Ki was > 1000 nM on Substance-K receptor [1] and 48 nM on Substance-P receptor [2].

For `COc1cc(C(=O)N2CCN(C(=O)CNC3CCN(Cc4ccccc4)CC3)C(c3ccc(Cl)c(Cl)c3)C2)cc(OC)c1OC` (centres undefined), the values for the inhibition constant Ki at Substance-K receptor [1] and at Substance-P receptor [2] were 124 nM and 112 nM, respectively.

For `COc1cc(OC)cc(C(=O)N2CCN(C(=O)CNC3CCN(Cc4ccccc4)CC3)C(c3ccc(Cl)c(Cl)c3)C2)c1` (centres undefined), the results for the Ki on Substance-K receptor [1] and at Substance-P receptor [2] were 27 nM and 7.1 nM, respectively.

`Cc1cc(C)cc(C(=O)N2CCN(C(=O)CNC3CCN(C(=O)[C@H](N)Cc4ccc(O)cc4)CC3)[C@H](c3ccc(Cl)c(Cl)c3)C2)c1`: the Ki stood at 7 nM at Substance-K receptor [1] and 32 nM at Substance-P receptor [2].

In the case of `Cc1cc(C)cc(C(=O)N2CCN(C(=O)CNC3CCN(Cc4ccccc4)CC3)[C@@H](c3ccc(Cl)c(Cl)c3)C2)c1`, the Kb at Substance-P receptor [4] is 6.31 nM.

Regarding `O=C(CN1CCN(Cc2ccccc2)CC1)N1CCN(Cc2cc(C(F)(F)F)cc(C(F)(F)F)c2)CC1c1ccc(Cl)c(Cl)c1` (centres undefined), the Ki is > 1000 nM at Substance-K receptor [1] and 28 nM at Substance-P receptor [2].

With `O=C(CN1CCN(Cc2ccccc2)CC1)N1CCN(Cc2cc(C(F)(F)F)cc(C(F)(F)F)c2)CC1c1ccccc1` (centres undefined), the Ki on Substance-K receptor [1] is > 1000 nM; on Substance-P receptor [2], 48 nM.

For `O=C(c1cc(O)cc(O)c1)N1CCN(C(=O)CNC2CCN(Cc3ccccc3)CC2)C(c2ccc(Cl)c(Cl)c2)C1` (centres undefined), the inhibition constant Ki at Substance-K receptor [1] and at Substance-P receptor [2] was > 1000 nM throughout.

For `O=C(CN1CCC(Cc2ccccc2)CC1)N1CCN(Cc2cc(C(F)(F)F)cc(C(F)(F)F)c2)CC1c1ccccc1` (centres undefined), the Ki at Substance-K receptor [1] was > 1000 nM; at Substance-P receptor [2], 37 nM.

Turning to `O=C(c1cc(C(F)(F)F)cc(C(F)(F)F)c1)N1CCN(C(=O)CNC2CCN(Cc3ccccc3)CC2)C(c2ccc(Cl)c(Cl)c2)C1` (centres undefined), the Kb on Substance-P receptor [4] was 79.4 nM.

For `O=C(CNC1CCN(Cc2ccccc2)CC1)N1CCN(Cc2cc(C(F)(F)F)cc(C(F)(F)F)c2)CC1c1ccccc1` (centres undefined), the figures for the inhibition constant (Ki) on Substance-K receptor [1] and at Substance-P receptor [2] were 300 nM and 17 nM, respectively.

On to `O=C(CN1CCC(O)(c2ccccc2)CC1)N1CCN(Cc2cc(C(F)(F)F)cc(C(F)(F)F)c2)CC1c1ccc(Cl)c(Cl)c1` (centres undefined), for which the Ki was > 1000 nM at Substance-K receptor [1] and 32 nM at Substance-P receptor [2].

In the case of `CC(=O)NC1(c2ccccc2)CCN(CC(=O)N2CCN(Cc3cc(C(F)(F)F)cc(C(F)(F)F)c3)CC2c2ccc(Cl)c(Cl)c2)CC1` (centres undefined), the figures for the Ki at Substance-K receptor [1] and on Substance-P receptor [2] were > 1000 nM and 148 nM, respectively.

(Values after ChEMBL document CHEMBL1134946, “Synthesis and NK(1)/NK(2) binding activities of a series of diacyl-substituted 2-arylpiperazines” (Bioorg Med Chem Lett, 2002).)
